“Also recorded” adds a separate entry of the source. Like-named read-outs stand apart in the source and are kept apart here.

The source of these data is US11655477B2, “Methods for thaxtomin production and engineered non-native Streptomyces with increased thaxtomin production” (priority 2017, dated 2023).

In one data set the test system is radish seedling. The experiment in a line: Herbicidal activity assay, radish seedling growth inhibition on agar plates. It is filed as in vivo. To be noted: for herbicidal activity / growth inhibition toward radish seedling (in words): DMSO as negative control; for IC50: total seedling length after 6 days, percent inhibition relative to DMSO control, four-parameter logistic fit, read-out: I50 (herbicidal activity, radish seedling assay). As for the experimental part:
Serial concentrations (0 to 4 μM) of thaxtomins in DMSO were added into 20 mL of 1.5% warm agar solution with gentle agitation. DMSO was included as the negative control. The solution was then poured into the plate for solidification at room temperature for 30 min. Radish seeds (Burpee) were surface disinfested, pregerminated and selected when the radicle was […] and just emerged from the seed coat. Six radish seedlings were equally located on the surface of each plate with the root ends all pointed in the same direction. Agar plates were covered, sealed with Parafilm. The seedlings in the agar plates grew at room temperature under fluorescent lighting (12 h per day for 6 days), and total seedling lengths were then recorded. Three plates were set up for each dosage of each compound. Percent inhibition relative to the mean growth response in DMSO treated control plates was then calculated. Dose-response curves were fit to a four-parameter logistic model as described in Streibig, J C, et al., 1993 (which is hereby incorporated by reference herein), and Iso values were estimated from these curves.

In a further data set the test system is Jurkat cells. Briefly: MTT assay to characterize cytotoxicity, Jurkat cells. It is filed as cell-based, human. To be noted: for cytotoxicity toward Jurkat cell line (in words): PBS as negative control; for IC30 (30% inhibitory concentration) toward Jurkat cells: human T-cell leukemia Jurkat, MTT, 48 to 72 h. The procedure:
(§1) PC-3 and Jurkat cells were cultured in DMEM or RPM11640 medium containing 10% fetal bovine serum and 100 U/mL penicillin and streptomycin, and maintained at 37° C. in a humidified incubator under 5% CO2. The cells (1×10^4 for Jurkat, and 5,000 for PC-3 in 100 μL) were seeded into 96-well plates and incubated overnight. Varying concentrations of purified compounds (0 μM, 12.5 μM, 25 μM, 50 μM and 100 μM) were added to the wells. After incubation at 37° C. for 48 to 72 h, 10 μL of MTT (5 mg/mL) in PBS was added and incubated for 4 h, followed by aspiration of the medium. DMSO (100 μL) was added to each well to dissolve the MTT in the wells, and the plates were agitated for 1 h for recording the absorbance at 570 nm using UV/vis microplate spectrophotometer (BioTek). Three to six replications were performed per treatment of each sample.
(In general: Formazan colour is commonly taken as a measure of viable cells.)

Another data set deals with PC-3 cells. The experiment in a line: MTT assay to characterize cytotoxicity, PC-3 cells. The following applies: for cytotoxicity toward PC-3 cell line (in words): PC-3, PBS as negative control; for IC30 (30% inhibitory concentration) toward PC-3 cells: prostate cancer PC-3, MTT, 48 to 72 h. It is filed as cell-based, human. As for the experimental part:
as §1

A further data set has as its system cellulose biosynthesis. The following applies: background statement; cited from earlier work.

Turning to `CN1C(=O)C(O)(Cc2ccccc2O)N(C)C(=O)C1Cc1c[nH]c2cccc([N+](=O)[O-])c12` (centres unmarked) [Compound 2, ortho-thaxtomin A], in the data set on radish seedling, the “herbicidal activity / growth inhibition toward radish seedling (in words)” value is listed as “potent growth inhibition activity” and the IC50 stood at 0.81 ± 0.04 µM. In the data set on Jurkat cells, the “cytotoxicity toward Jurkat cell line (in words)” value is given as “weak cytotoxicity” and the “IC30 (30% inhibitory concentration) toward Jurkat cells” value worked out at 56.46 ± 12.04 µM. Besides, in the data set on PC-3 cells, the “cytotoxicity toward PC-3 cell line (in words)” value was “weak cytotoxicity” and the “IC30 (30% inhibitory concentration) toward PC-3 cells” value is 42.38 ± 13.62 µM.

On to `CN1C(=O)[C@](O)(Cc2ccccc2)N(C)C(=O)[C@@H]1Cc1c[nH]c2cccc([N+](=O)[O-])c12` [Compound 3, thaxtomin B], for which, in the data set on Jurkat cells, the “cytotoxicity toward Jurkat cell line (in words)” value is recorded as “weak cytotoxicity” and the “IC30 (30% inhibitory concentration) toward Jurkat cells” value was determined as 50.92 ± 13.17 µM. Also, in the data set with PC-3 cells, the “cytotoxicity toward PC-3 cell line (in words)” value is on record as “weak cytotoxicity” and the “IC30 (30% inhibitory concentration) toward PC-3 cells” value was found to be 37.87 ± 13.46 µM.

Take `CN1C(=O)[C@](O)(Cc2cccc(O)c2)N(C)C(=O)[C@@H]1Cc1c[nH]c2ccc(F)c([N+](=O)[O-])c12` [Compound 9, 5-F-thaxtomin A]: the IC50 in the data set with radish seedling (Raphanus sativus, 144 h) worked out at 0.56 ± 0.03 µM. The “herbicidal activity / growth inhibition toward radish seedling (in words)” value in the data set with radish seedling is “potent herbicidal activity; also recorded: potent growth inhibition activity”. Moreover, in the data set with Jurkat cells, the “cytotoxicity toward Jurkat cell line (in words)” value is “weak cytotoxicity” and the “IC30 (30% inhibitory concentration) toward Jurkat cells” value was found to be 63.26 ± 9.29 µM. In addition, in the data set on PC-3 cells, the “cytotoxicity toward PC-3 cell line (in words)” value is on record as “weak cytotoxicity” and the “IC30 (30% inhibitory concentration) toward PC-3 cells” value was determined as 56.76 ± 17.12 µM.

For `CN1C(=O)[C@](O)(Cc2cccc(O)c2)N(C)C(=O)[C@@H]1Cc1c[nH]c2cccc([N+](=O)[O-])c12` [Compound 1, thaxtomin A, reference compound], in the data set with radish seedling, the “herbicidal activity / growth inhibition toward radish seedling (in words)” value is on record as “potent growth inhibition activity” and the IC50 stood at 0.45 ± 0.05 µM. Also, in the data set with Jurkat cells, the “cytotoxicity toward Jurkat cell line (in words)” value was “weak cytotoxicity” and the “IC30 (30% inhibitory concentration) toward Jurkat cells” value came to 70.84 ± 16.68 µM. For the same molecule, in the data set on PC-3 cells, the “cytotoxicity toward PC-3 cell line (in words)” value is “weak cytotoxicity” and the “IC30 (30% inhibitory concentration) toward PC-3 cells” value turned out to be 80.28 ± 10.50 µM. For the same molecule, the “concentration range of inhibition of cellulose biosynthesis” value in the data set with cellulose biosynthesis was “in the nM range”.
